Data on 21 compounds can be found in patent publication US20240327407A1, “NOVEL INHIBITORS OF AUTOTAXIN” (CADILA HEAL THCARE LIMITED, priority 2021, published 2024).

The target of this assay is ATX (Mus musculus (Mouse), UniProt Q9R1E6). Put plainly: Mice serum ATX inhibitory activity (IC50 determination). The format is biochemical. Here is the method: ATX Inhibitory activity was determined in a biochemical or whole blood assay as described previously (Bretschneider, T. et al., SLAS Discov 2017, 22, 425). The biochemical reaction consisted of 50 mM Tris (pH 8.0), 3 mM KCl, 1 mM CaCl2, 1 mM Mg Cl2, […] NaCl and 0.1% bovine serum albumin, which was supplemented with 5 nM recombinant rat ATX, 5 μM 18:1 LPC and the test compound (0.1-10 μM). The reaction was stopped at 2 h by the addition of butanol, prior to the RapidFire-MS-based analysis.
The whole blood assay consisted of 45 μL μL heparinized mice/rat whole blood and the test compound (0.12-100 μM). The reaction was stopped after 1 h at 37° C. by addition of 100 μL 40 mM disodium hydrogen phosphate buffer containing 30 mM citric acid (pH 4) and 1 μM 17:0 LPA (internal standard). Afterwards the samples were treated a described above and analysed by LC-MS/MS. The data was analyzed using graph pad prism (v 7.03) to arrive at the half-maximal inhibitory concentrations (IC50) of the test compounds.
In the case of `CC(C)[C@@H](NC(=O)c1cc(OC(F)(F)F)ccc1F)C(=O)N1CCC2(CC1)C(=O)N(C)CC2c1ccccc1` (stereo partly drawn) [Compound 110, 2-fluoro-N-((2R)-3-methyl-1-(2-methyl-1-oxo-4-phenyl-2,8-diazaspiro[4.5]decan-8-yl)-1-oxobutan-2-yl)-5-(trifluoromethoxy)benzamide], the midpoint of inhibition, the IC50, lay at 3.8 nM.
The value for `Cc1ccnc(C(=O)N[C@@H](C(=O)N2CCC3(CC2)CN(C)CC3c2cccnc2)C(C)C)c1` (stereo partly drawn) [Compound 162, 4-methyl-N-((2R)-3-methyl-1-(2-methyl-4-(pyridin-3-yl)-2,8-diazaspiro[4.5]decan-8-yl)-1-oxobutan-2-yl)picolinamide] was 10.2 nM; that for `CCc1nc2c(C)cc(N3CCN(CC(=O)N4CC(O)C4)CC3)cn2c1N(C)c1nc(-c2ccc(F)cc2)c(C#N)s1` [GLPG1690] was 508 nM; that for `CC(C)[C@@H](NC(=O)c1cc(C(F)(F)F)ccc1F)C(=O)N1CCC2(CC1)C(=O)NCC2c1ccc(F)cc1` (stereo partly drawn) [Compound 102, 2-fluoro-N-((2R)-1-(4-(4-fluorophenyl)-1-oxo-2,8-diazaspiro[4.5]decan-8-yl)-3-methyl-1-oxobutan-2-yl)-5-(trifluoromethyl)benzamide] was 22.6 nM.
Take `CC(C)[C@@H](NC(=O)c1cc(F)ccc1F)C(=O)N1CCC2(CC1)CN(C)CC2c1ccc(F)cc1` (stereo partly drawn) [Compound 149, 2,5-difluoro-N-((2R)-1-(4-(4-fluorophenyl)-2-methyl-2,8-diazaspiro[4.5]decan-8-yl)-3-methyl-1-oxobutan-2-yl)benzamide]: the IC50 worked out at 47.3 nM.
The same measure for `COc1ccc(C2CN(C)CC23CCN(C(=O)[C@H](NC(=O)c2cc(C)ccc2F)C(C)C)CC3)cc1` (stereo partly drawn) [Compound 123, 2-fluoro-N-((2R)-1-(4-(4-methoxyphenyl)-2-methyl-2,8-diazaspiro[4.5]decan-8-yl)-3-methyl-1-oxobutan-2-yl)-5-methylbenzamide]: 9.3 nM; for `COc1ccc(F)c(C(=O)N[C@@H](C(=O)N2CCC3(CC2)C(=O)N(C)CC3c2ccccc2)C(C)C)c1` (stereo partly drawn) [Compound 105, 2-fluoro-5-methoxy-N-((2R)-3-methyl-1-(2-methyl-1-oxo-4-phenyl-2,8-diazaspiro[4.5]decan-8-yl)-1-oxobutan-2-yl)benzamide]: 25.6 nM.
Compound `CC(C)[C@@H](NC(=O)c1cc(C(F)(F)F)ccc1F)C(=O)N1CCC2(CC1)CC(=O)NCC2c1ccccc1` (stereo partly drawn) [Compound 163, 2-fluoro-N-((2R)-3-methyl-1-oxo-1-(10-oxo-7-phenyl-3,9-diazaspiro[5.5]undecan-3-yl)butan-2-yl)-5-(trifluoromethyl)benzamide] returned an IC50 of 3.5 nM. This IC50 lies about 7.3-fold lower than the previous one.
Compound `CN1CC(c2ccc(F)cc2)C2(CCN(C(=O)[C@H](NC(=O)c3cc(C(F)(F)F)ccc3F)c3ccccc3)CC2)C1` (stereo partly drawn) [Compound 140, 2-fluoro-N-((1R)-2-(4-(4-fluorophenyl)-2-methyl-2,8-diazaspiro[4.5]decan-8-yl)-2-oxo-1-phenylethyl)-5-(trifluoromethyl)benzamide] gave a half-maximal inhibitory concentration (IC50) of 11.5 nM.
Turning to `CCOC(=O)N1CC(c2ccc(F)cc2)C2(CCN(C(=O)[C@H](NC(=O)c3cc(C(F)(F)F)ccc3F)C(C)C)CC2)C1` (stereo partly drawn) [Compound 131, ethyl 8-((2-fluoro-5-(trifluoromethyl)benzoyl)-D-valyl)-4-(4-fluorophenyl)-2,8-diazaspiro[4.5]decane-2-carboxylate], half-maximal inhibition (IC50) required 150 nM.
`CC(C)[C@@H](NC(=O)c1cc(C(F)(F)F)ccc1F)C(=O)N1CCC2(CC1)C(=O)NCC2c1ccccc1` (stereo partly drawn) [Compound 45, 2-fluoro-N-((2R)-3-methyl-1-oxo-1-(1-oxo-4-phenyl-2,8-diazaspiro[4.5]decan-8-yl)butan-2-yl)-5-(trifluoromethyl)benzamide] gave a half-maximal inhibitory concentration (IC50) of 19.2 nM.
Take `CC(C)[C@@H](NC(=O)c1cc(Cl)ccc1Cl)C(=O)N1CCC2(CC1)CN(C)CC2c1ccc(F)cc1` (stereo partly drawn) [Compound 151, 2,5-dichloro-N-((2R)-1-(4-(4-fluorophenyl)-2-methyl-2,8-diazaspiro[4.5]decan-8-yl)-3-methyl-1-oxobutan-2-yl)benzamide]: the IC50 came to 130 nM.
Regarding `CC(C)[C@@H](NC(=O)c1cc(C(F)(F)F)ccc1F)C(=O)N1CCC2(CC1)CN(C)CC2c1ccc(C(=O)O)cc1` (stereo partly drawn) [Compound 132, 4-(8-((2-fluoro-5-(trifluoromethyl)benzoyl)-D-valyl)-2-methyl-2,8-diazaspiro[4.5]decan-4-yl)benzoic acid], the IC50 worked out at 1.1 nM. Against the preceding compound, the IC50 is about 120-fold lower.
The value for `CCN1CC(c2ccc(F)cc2)C2(CCN(C(=O)[C@H](NC(=O)c3cc(C(F)(F)F)ccc3F)C(C)C)CC2)C1=O` (stereo partly drawn) [Compound 104, N-((2R)-1-(2-ethyl-4-(4-fluorophenyl)-1-oxo-2,8-diazaspiro[4.5]decan-8-yl)-3-methyl-1-oxobutan-2-yl)-2-fluoro-5-(trifluoromethyl)benzamide] was 11.7 nM; that for `CC(C)[C@@H](NC(=O)c1cc(C(F)(F)F)ccc1F)C(=O)N1CCC2(CC1)CN(C)CC2c1cccnc1` (stereo partly drawn) [Compound 64, 2-fluoro-N-((2R)-3-methyl-1-(2-methyl-4-(pyridin-3-yl)-2,8-diazaspiro[4.5]decan-8-yl)-1-oxobutan-2-yl)-5-(trifluoromethyl)benzamide] was 13.4 nM; that for `CC(C)[C@@H](NC(=O)c1cc(C(F)(F)F)ccc1F)C(=O)N1CCC2(CC1)C(=O)N(C)C(=O)C2c1ccccc1` (stereo partly drawn) [Compound 1, 2-fluoro-N-((2R)-3-methyl-1-(2-methyl-1,3-dioxo-4-phenyl-2,8-diazaspiro[4.5]decan-8-yl)-1-oxobutan-2-yl)-5-(trifluoromethyl)benzamide] was 91 nM.
The same measure for `Cc1ccc(C2CN(C)CC23CCN(C(=O)[C@H](NC(=O)c2cc(C(F)(F)F)ccc2F)C(C)C)CC3)cc1` (stereo partly drawn) [Compound 136, 2-fluoro-N-((2R)-3-methyl-1-(2-methyl-4-(p-tolyl)-2,8-diazaspiro[4.5]decan-8-yl)-1-oxobutan-2-yl)-5-(trifluoromethyl)benzamide]: 2.2 nM.
`CC(C)[C@@H](NC(=O)c1cc(C(F)(F)F)ccc1F)C(=O)N1CCC2(CC1)C(=O)N(CC1CC1)CC2c1cccnc1` (stereo partly drawn) [Compound 113, N-((2R)-1-(2-(cyclopropylmethyl)-1-oxo-4-(pyridin-3-yl)-2,8-diazaspiro[4.5]decan-8-yl)-3-methyl-1-oxobutan-2-yl)-2-fluoro-5-(trifluoromethyl)benzamide] registered an IC50 of 102 nM.
The value for `CC(C)[C@@H](NC(=O)c1cc(C(F)(F)F)ccc1F)C(=O)N1CCC2(CC1)CN(C)CC2c1ccc2[nH]ncc2c1` (stereo partly drawn) [Compound 65, N-((2R)-1-(4-(1H-indazol-5-yl)-2-methyl-2,8-diazaspiro[4.5]decan-8-yl)-3-methyl-1-oxobutan-2-yl)-2-fluoro-5-(trifluoromethyl)benzamide] was 6.9 nM; that for `CC(C)[C@H](NC(=O)c1cc(C(F)(F)F)ccc1F)C(=O)N1CCC2(CC1)CC(=O)N(C)CC2c1ccccc1` (stereo partly drawn) [Compound 185, 2-fluoro-N-((2S)-3-methyl-1-(9-methyl-10-oxo-7-phenyl-3,9-diazaspiro-[5.5]undecan-3-yl)-1-oxobutan-2-yl)-5-(trifluoromethyl)benzamide] was 12 nM.
Consider `CC(C)[C@@H](NC(=O)c1cc(C(F)(F)F)ccc1F)C(=O)N1CCC2(CC1)CN(C)CC2c1ccccc1` (stereo partly drawn) [Compound 62, 2-fluoro-N-((2R)-3-methyl-1-(2-methyl-4-phenyl-2,8-diazaspiro[4.5]decan-8-yl)-1-oxobutan-2-yl)-5-(trifluoromethyl)benzamide], for which the midpoint of inhibition, the IC50, lay at 6.6 nM.
